# Measured values: patent US20170190671A1, “BIS(ARYL)CATECHOL DERIVATIVES AS HERBICIDES” (E I DU PONT DE NEMOURS AND COMPANY, priority 2014, published 2017)
# Columns and labels:
# Assay type in all cases: in vivo
# [1] = test system: barnyardgrass (Echinochloa crus-galli); experiment: Test B flooded paddy; details: Echinochloa crus-galli, 336 h; 250 g ai/ha, Flood, 13 to 15 days, scale 0 (no effect) to 100 (complete control); read-out: Plant response rating, Barnyardgrass
# Summary of the method: (§1)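 In-water treatment: compound dosed into 3 cm flood over soil, water level unchanged throughout. Controls run alongside; visual assessment at day 13–15.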
# [2] = test system: ducksalad (Heteranthera limosa); experiment: Test B flooded paddy; details: Heteranthera limosa, 336 h; 250 g ai/ha, Flood, 13 to 15 days, scale 0 (no effect) to 100 (complete control); read-out: Plant response rating, Ducksalad
# Summary of the method: as §1
# rice (Oryza sativa) = experiment: Test B flooded paddy; details: Oryza sativa, 336 h; 250 g ai/ha, Flood, 13 to 15 days, scale 0 (no effect) to 100 (complete control); read-out: Plant response rating, Rice
# Summary of the method: as §1
# [3] = test system: sedge, umbrella (small-flower umbrella sedge, Cyperus difformis); experiment: Test B flooded paddy; details: Cyperus difformis, 336 h; 250 g ai/ha, Flood, 13 to 15 days, scale 0 (no effect) to 100 (complete control); read-out: Plant response rating, Sedge, Umbrella
# Summary of the method: as §1
# [4] = test system: Italian ryegrass (Lolium multiflorum); experiment: Test A preemergence; details: Lolium multiflorum, pre-emergence, 240 h, 0 to 100 scale (0 no effect, 100 complete control), read-out: Ryegrass, Italian plant response rating
# Summary of the method: (§2)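 Pre- and postemergence greenhouse screen. Soil: loam + sand. Spray carrier: solvent mixture, non-phytotoxic, with surfactant. Post timing at 1–2 leaves, height 2–10 cm. Readout: visual injury on a 0–100 scale roughly 10 days after application, untreated plants as reference.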
# [5] = test system: barnyardgrass (Echinochloa crus-galli); experiment: Test A preemergence; details: Echinochloa crus-galli, pre-emergence, 240 h, 0 to 100 scale (0 no effect, 100 complete control), read-out: Barnyardgrass plant response rating
# Summary of the method: as §2
# [6] = test system: giant foxtail (Setaria faberii); experiment: Test A preemergence; details: Setaria faberi, pre-emergence, 240 h, 0 to 100 scale (0 no effect, 100 complete control), read-out: Foxtail, Giant plant response rating
# Summary of the method: as §2
# kochia (Kochia scoparia) [7] = experiment: Test A preemergence; details: Bassia scoparia, pre-emergence, 240 h, 0 to 100 scale (0 no effect, 100 complete control), read-out: Kochia plant response rating
# Summary of the method: as §2
# [8] = test system: pigweed (Amaranthus retroflexus); experiment: Test A preemergence; details: Amaranthus retroflexus, pre-emergence, 240 h, 0 to 100 scale (0 no effect, 100 complete control), read-out: Pigweed plant response rating
# Summary of the method: as §2
# [9] = test system: ragweed (common ragweed, Ambrosia elatior); experiment: Test A preemergence; details: Ambrosia artemisiifolia, pre-emergence, 240 h, 0 to 100 scale (0 no effect, 100 complete control), read-out: Ragweed plant response rating
# Summary of the method: as §2
# [10] = test system: Italian ryegrass (Lolium multiflorum); experiment: Test A postemergence; details: Lolium multiflorum, post-emergence, 240 h, 0 to 100 scale, read-out: Plant response rating, Ryegrass, Italian
# Summary of the method: as §2
# [11] = test system: barnyardgrass (Echinochloa crus-galli); experiment: Test A postemergence; details: Echinochloa crus-galli, post-emergence, 240 h, 0 to 100 scale, read-out: Plant response rating, Barnyardgrass
# Summary of the method: as §2
# [12] = test system: blackgrass (Alopecurus myosuroides); experiment: Test A postemergence; details: Alopecurus myosuroides, post-emergence, 240 h, 0 to 100 scale, read-out: Plant response rating, Blackgrass
# Summary of the method: as §2
# corn (Zea mays) = experiment: Test A postemergence; details: Zea mays, post-emergence, 240 h, 0 to 100 scale
# Summary of the method: as §2
# [13] = test system: galium (catchweed bedstraw, Galium aparine); experiment: Test A postemergence; details: Galium, post-emergence, 240 h, 0 to 100 scale, read-out: Plant response rating, Galium
# Summary of the method: as §2
# [14] = test system: giant foxtail (Setaria faberii); experiment: Test A postemergence; details: Setaria faberi, post-emergence, 240 h, 0 to 100 scale, read-out: Plant response rating, Foxtail, Giant
# Summary of the method: as §2
# kochia (Kochia scoparia) [15] = experiment: Test A postemergence; details: Bassia scoparia, post-emergence, 240 h, 0 to 100 scale, read-out: Plant response rating, Kochia
# Summary of the method: as §2
# [16] = test system: pigweed (Amaranthus retroflexus); experiment: Test A postemergence; details: Amaranthus retroflexus, post-emergence, 240 h, 0 to 100 scale, read-out: Plant response rating, Pigweed
# Summary of the method: as §2
# [17] = test system: ragweed (common ragweed, Ambrosia elatior); experiment: Test A postemergence; details: Ambrosia artemisiifolia, post-emergence, 240 h, 0 to 100 scale, read-out: Plant response rating, Ragweed
# Summary of the method: as §2
# [18] = test system: wheat (Triticum aestivum); experiment: Test A postemergence; details: Triticum aestivum, post-emergence, 240 h, 0 to 100 scale, read-out: Plant response rating, Wheat
# Summary of the method: as §2
smiles,measurement,setting,value
FCc1cccc(Oc2ncc(Cl)cn2)c1Oc1ncc(Cl)cn1 [Compound 44],pest or weed control at 250 g/ha,[1],40%
same,pest or weed control at 250 g/ha,[2],95%
same,plant injury at 250 g/ha,rice (Oryza sativa),40%
same,pest or weed control at 250 g/ha,[3],75%
same,pest or weed control at 31 g/ha,[4]; 31 g ai/ha,0%
same,pest or weed control at 125 g/ha,[4]; 125 g ai/ha,20%
same,pest or weed control at 31 g/ha,[5]; 31 g ai/ha,20%
same,pest or weed control at 125 g/ha,[5]; 125 g ai/ha,100%
same,pest or weed control at 31 g/ha,[6]; 31 g ai/ha,90%
same,pest or weed control at 125 g/ha,[6]; 125 g ai/ha,100%
same,pest or weed control at 31 g/ha,kochia (Kochia scoparia) [7]; 31 g ai/ha,60%
same,pest or weed control at 125 g/ha,kochia (Kochia scoparia) [7]; 125 g ai/ha,100%
same,pest or weed control at 31 g/ha,[8]; 31 g ai/ha,100%
same,pest or weed control at 125 g/ha,[8]; 125 g ai/ha,100%
same,pest or weed control at 31 g/ha,[9]; 31 g ai/ha,0%
same,pest or weed control at 125 g/ha,[9]; 125 g ai/ha,40%
same,pest or weed control at 31 g/ha,[10]; 31 g ai/ha,20%
same,pest or weed control at 125 g/ha,[10]; 125 g ai/ha,30%
same,pest or weed control at 31 g/ha,[11]; 31 g ai/ha,20%
same,pest or weed control at 125 g/ha,[11]; 125 g ai/ha,90%
same,pest or weed control at 31 g/ha,[12]; 31 g ai/ha,40%
same,pest or weed control at 125 g/ha,[12]; 125 g ai/ha,80%
same,"Corn plant response rating (crop injury, 0 = no effect, 100 = complete kill) at 31 g/ha",corn (Zea mays); 31 g ai/ha,20%
same,"Corn plant response rating (crop injury, 0 = no effect, 100 = complete kill) at 125 g/ha",corn (Zea mays); 125 g ai/ha,70%
same,pest or weed control at 31 g/ha,[13]; 31 g ai/ha,70%
same,pest or weed control at 125 g/ha,[13]; 125 g ai/ha,80%
same,pest or weed control at 31 g/ha,[14]; 31 g ai/ha,10%
same,pest or weed control at 125 g/ha,[14]; 125 g ai/ha,90%
same,pest or weed control at 31 g/ha,kochia (Kochia scoparia) [15]; 31 g ai/ha,50%
same,pest or weed control at 125 g/ha,kochia (Kochia scoparia) [15]; 125 g ai/ha,80%
same,pest or weed control at 31 g/ha,[16]; 31 g ai/ha,30%
same,pest or weed control at 125 g/ha,[16]; 125 g ai/ha,70%
same,pest or weed control at 31 g/ha,[17]; 31 g ai/ha,20%
same,pest or weed control at 125 g/ha,[17]; 125 g ai/ha,70%
same,plant injury at 31 g/ha,[18]; 31 g ai/ha,20%
same,plant injury at 125 g/ha,[18]; 125 g ai/ha,80%
